Tested on: human breast cancer cell line MCF7
Test: Efficacy of the compounds on the survival of tumor cells (cytotoxic effect, cell-titer Glo luminescence)
Assay type: cell-based
Conditions: 48 hours incubation with compound (2.4 nM to 10,000 nM), inhibition of cell survival
Experimental: The effect of the compounds on the survival of the human breast cancer cell line MCF7 was measured.
The cell line was analyzed at 37° C. [98.6° F.], 95% humidity and 5% CO2 in RPMI Medium (Cambrex).
The cells are inoculated in a 96-well microtiter plate (Costar) at an initial density of 2400 cells per well and cultivated for 24 hours.
The compounds are dissolved in DMSO, diluted with cell medium and added to the wells.
The cells are incubated for another 48 hours at a concentration of the compounds between 2.4 nM and 10,000 nM at a volume of 50 μl.
50 μl of cell-titer Glo (Promega) are added to each well and the microtiter plate is incubated for 2 minutes at room temperature on a shaker and then left standing in the dark for 10 minutes.
The luminescence is measured with a microplate reader and is proportional to the number of surviving cells. The percentage of inhibition of the cell survival is calculated in comparison to (i) without cells and with compound (100% inhibition) and (ii) with cells and without compound (no inhibition).
The concentration of the half-maximum inhibition (IC50) is determined with GraphPad Prism (GraphPad Software), whereby the controls are 0% and 100%.

C/C=C/C=C/c1cc2c(CN(C)C)c3c(c(O)c2c(=O)[nH]1)[C@@]1(CC3)C(=O)c2c(O)c3c(c(O)c2C1=O)C(=O)C(NC)=CC3=O [Compound 7a, (8S)-4′,9,9′-trihydroxy-5-dimethylaminomethyl-6′-methylamine-3-[(1E,3E)-penta-1,3-dienyl]-6,7-dihydrospiro[cyclopenta[g]-isoquinoline-8,2′-cyclopenta[b]-naphthalene]-1,1′-3′,5′,8′(2H)-pentone]
IC50: 660 nM

C/C=C/C=C/c1cc2c(Br)c3c(c(O)c2c(=O)[nH]1)[C@]1(CC3)C(=O)c2c(O)c3c(c(O)c2C1=O)C(=O)C(N1CCOCC1)=C(Br)C3=O [Compound 9, (BS)-4′,9,9′-trihydroxy-5,7′-dibromo-6′-morpholino-3-[(1E,3E)-penta-1,3-dienyl]-6,7-dihydrospiro[cyclopenta[g]-isoquinoline-8,2′-cyclopenta[b]-naphthalene]-1,1′-3′,5′,8′(2H)-pentone]
IC50: 670 nM

(8S)-4,9,9′-trihydroxy-5,7′-dibromo-6′-cyclopropylamino-1,1′,3′,5′,8′-pentaoxo-1,1′,2,3′,5′,6,7,8′-octahydrospiro-[cyclopenta[g]-isoquinoline-8,2′-cyclopenta[b]naphthalene]-3-carbaldehyde-O-methyloxime [Compound 12]
IC50: 380 nM

CON=Cc1cc2c(Br)c3c(c(O)c2c(=O)[nH]1)[C@]1(CC3)C(=O)c2c(O)c3c(c(O)c2C1=O)C(=O)C(N(C)C)=C(Br)C3=O [Compound 13, (8S)-4′,9,9′-trihydroxy-5,7′-dibromo-6′-dimethylamino-1,1′,3′,5′,8′-pentaoxo-1,1′,2,3′,5′,6,7,8′-octahydrospiro-[cyclopenta[g]-isoquinoline-8,2′-cyclopenta[b]naphthalene]-3-carbaldehyde-O-methyloxime]
IC50 (Homo sapiens): 300 nM

C/C=C/C=C/c1cc2c(Br)c3c(c(O)c2c(=O)[nH]1)[C@]1(CC3)C(=O)c2c(O)c3c(c(O)c2C1=O)C(=O)C(NC)=C(Br)C3=O [Compound 7, (8S)-4′,9,9′-trihydroxy-5,7′-dibromo-6′-methylamino-3-[(1E,3E)-penta-1,3-dienyl]-6,7-dihydrospiro[cyclopenta[g]-isoquinoline-8,2′-cyclopenta[b]-naphthalene]-1,1′-3′,5′,8′(2H)-pentone]
IC50: 190 nM
